Measurements published in US4442031A, “Immunopotentiating peptides” (Hoffmann-La Roche Inc., priority 1983, dated 1984).
Where no end group is shown, it is not given here.

What was measured:
[1] = system: Candida albicans ATCC 10231; test: Protective activity against Candida albicans infection in 5-FU immunosuppressed mice; type: in vivo; conditions: for Survivors Day 8 / Survivors Day 15: ddY mice; for Survivors at Day 8 after infection: Table 6, i.p., ten times with 5-FU, control 1/7
Method: In a series of examples, the compounds of formula I were tested for protective activity against opportunistic infections in immunosuppressed mice. Female ddY mice (6 weeks old) weighing about 26 g were pretreated daily for ten days with 5-fluorouracil (5-FU) (25 mg/kg/day, i.p.) and with thymosin α1 or with compounds of formula I (i.p.) at varying dosages. The mice were then infected with Candida albicans ATCC 10231 (1×10^5 cells or more) at 24 hour after the last treatment. One control group was administered 5-FU and saline solution and a second control group received neither 5-FU nor compound of formula I prior to infection with Candida albicans. The number of animals surviving eight days after infection with Candida albicans and 15 days after infection with Candida albicans is presented in the table below.
(§1) Normal mice (female ddY mice, 6 weeks old) were highly tolerant to infection with Candida albicans ATCC 10231 at relatively low dose (1-2×10^5 cells, iv.). However, when pretreated daily for ten times with 5-FU (25 mg/kg/day, ip.), the mice were susceptible to infection as shown in Table 6. […] Compound A was also shown to be active against infection with Pseudomonas aeruginosa 5E81-1 and Listeria monocytogenes EGD in the immunosuppressed mice (see Tables 7 and 8).

[2] = system: Pseudomonas aeruginosa 5E81-1; test: Protection against Pseudomonas aeruginosa infection in 5-FU immunosuppressed mice; type: in vivo; conditions: for Survivors at Day 15 after infection: Table 7, i.p., 5-FU immunosuppressed mice, control 0/30
Method: as §1

P388 leukemia = test: Protective activity against P388 leukemia growth in 5-FU immunosuppressed mice; type: in vivo; conditions: for Mean Survival days (days ± S.D.): CDF1 mice, 5-FU +, P388 +, 5-FU + saline 4.1
Method: The treatment with cytostatic agents often decreases immunocompetence and consequently increases incidence of metastasis of tumor in cancer patients. […] In the experiment shown in Table 10, male CDF1 mice (6 week old) were treated daily for 8 times with or without 5-FU (28 mg/kg/day ip.) and then transplanted subcutaneously with P388 leukemic cells (3×10^5) into footpad 24 hours later. When pretreated with 5-FU, mice died very quickly at 4 days, while normal mice survived about 23 days after the transplant. […] Thymosin α1 and compound A may improve the immunodefense system against metastatic tumor growth in cancer patients who are receiving immunosuppressive chemotherapy. In combination with thymosin α1 or compound A, more extensive cancer chemotherapy for a longer duration may be possible.
^(1) CDF1 mice were pretreated daily for 8 times from Day 8 to
with 5FU (28 mg/kg/day, ip.).
^(2) Thymosin α1 or Compound A were administered daily for
14 times from Day 8 to 5 by ip. route.
^(3) P388 leukemic cells (3 × 10^5) were inoculated into
^(4) Survival days after the inoculation of the leukemic cells.

[3] = Restoration of thymus weight decreased by 5-FU injection; type: in vivo, mice; conditions: for Av. thymus weight mg: 8 days after 5-FU, control 39.4, 5-FU alone 23.4; for Av. thymus weight %: % of control
Method: It is known that anticancer drugs suppress immunological functions by affecting immunocytes. The thymus gland, which is essential for differentiation, maturation and supply to T-cells responsible for immunological reactions, decreases markedly in weight after injection of 5-FU. […] FIfty μg/kg of Compound A administered orally was as effective as 5 μg/kg of thymosin α1 injected intraperitoneally, when the thymus weight was measured immediately after the DTH measurement at 8 days after the 5-FU injection (see Table 5).
*Seven mice per group received the test compound one day before,
concurrently with, and 1 and 2 days after 5FU injection i.p. (100 mg/kg).
The mice were injected CRBC for The DTH assay at 3 and 7 days after the
The thymus weight was measured at 8 days after the 5FU injection.

[4] = system: delayed-type hypersensitivity (DTH); test: Restoration of delayed-type hypersensitivity (DTH) decreased by 5-FU in BDF1 mice; type: in vivo; conditions: for DTH response %: % of control
Method: A poor prognosis is often observed in cancer patients with impaired immune response. Impaired immune response can be caused by the cancer itself, by chemotherapeutic agents, or by radiotherapy. Thus, therapeutic agents which restore impaired immune response in cancer patients are expected to play an important role in combination therapy. The restoration activity of the compounds of the invention on impaired cell-mediated immunity was determined by measuring the enhancement of delayed-type hypersensitivity (DTH), which was decreased to a great extent in mice treated with 5-fluorouracil (5-FU).
Female BDF1 mice (20-22 g, 11-12 weeks old) received (i.p. or p.o.) the compound to be tested on consecutive days one day before, concurrently with and 1 and 2 days after the 5-FU treatment. For DTH measurement, 10^8 chicken red blood cells (CRBC) were injected i.p. (or s.c. into the left hind footpad) and challenged s.c. into the right hind footpad at 3 and 7 days after the 5-FU treatment, respectively. Restoration activity was calculated by the following formula from the DTH response observed in the control group, 5-FU treated group treatment and the Test group treated both with 5-FU and the compound of the invention. Restoration activity was calculated by the formula: [formula]

[5] = Example 8, 0.4 μg/kg i.p. daily for ten days with 5-FU
[6] = Example 8, 4.0 μg/kg i.p. daily for ten days with 5-FU
[7] = Example 8, 40.0 μg/kg i.p. daily for ten days with 5-FU
[8] = Example 10, 0.04 μg/kg i.p. daily for ten days with 5-FU
[9] = Example 10, 0.4 μg/kg i.p. daily for ten days with 5-FU
[10] = Example 10, 4.0 μg/kg i.p. daily for ten days with 5-FU
[11] = Example 11, 0.04 μg/kg i.p. daily for ten days with 5-FU
[12] = Example 11, 0.4 μg/kg i.p. daily for ten days with 5-FU
[13] = Example 11, 4.0 μg/kg i.p. daily for ten days with 5-FU
[14] = Table 2, 5-FU plus 0.05 μg/kg/day, i.p.
[15] = Table 2, 5-FU plus 0.5 μg/kg/day, i.p.
[16] = Table 2, 5-FU plus 5.0 μg/kg/day, i.p.
[17] = Table 3, second experiment, 5-FU plus 0.5 μg/kg/day, i.p.
[18] = Table 4, 5-FU plus 0.5 μg/kg/day p.o.
[19] = Table 4, 5-FU plus 5.0 μg/kg/day p.o.
[20] = Table 4, 5-FU plus 50.0 μg/kg/day p.o.

KKEVVE [Compound A, L-Lysyl-L-lysyl-L-glutamyl-L-valyl-L-valyl-L-glutamic acid]
Survivors Day 8 [1, 5]: 6/7
Survivors Day 15 [1, 5]: 5/7
Survivors Day 8 [1, 6]: 5/7
Survivors Day 15 [1, 6]: 4/7
Survivors Day 8 [1, 7]: 5/7
Survivors Day 15 [1, 7]: 2/7
Survivors Day 8 ([1]; Example 9, 0.4 μg/kg i.p. daily for ten days with 5-FU): 6/7
Survivors Day 8 ([1]; Example 9, 4.0 μg/kg i.p. daily for ten days with 5-FU): 5/7
Survivors Day 8 ([1]; Example 9, 40.0 μg/kg i.p. daily for ten days with 5-FU): 4/7
Survivors Day 8 [1, 8]: 6/10
Survivors Day 15 [1, 8]: 4/10
Survivors Day 8 [1, 9]: 9/10
Survivors Day 15 [1, 9]: 8/10
Survivors Day 8 [1, 10]: 9/10
Survivors Day 15 [1, 10]: 8/10
Survivors Day 8 [1, 11]: 6/10
Survivors Day 15 [1, 11]: 4/10
Survivors Day 8 [1, 12]: 9/10
Survivors Day 15 [1, 12]: 8/10
Survivors Day 8 [1, 13]: 9/10
Survivors Day 15 [1, 13]: 8/10
Survivors at Day 8 after infection ([1]; 0.4 μg/kg/day): 6/7
Survivors at Day 8 after infection ([1]; 4 μg/kg/day): 5/7
Survivors at Day 8 after infection ([1]; 40 μg/kg/day): 4/7
Survivors at Day 15 after infection ([2]; 0.04 μg/kg/day): 5/20
Survivors at Day 15 after infection ([2]; 0.4 μg/kg/day): 12/30
Survivors at Day 15 after infection ([2]; 4 μg/kg/day): 7/30
activity against infection (in words) ([2]; immunosuppressed mice): active
Mean Survival days (days ± S.D.) (P388 leukemia; 0.4 μg/kg/day ip. 14 times): 22.3 ± 2.8 days
Mean Survival days (days ± S.D.) (P388 leukemia; 4 μg/kg/day ip. 14 times): 23.7 ± 2.9 days
survival days (in words) (P388 leukemia; daily treatment in addition to 5-FU, 8 times before and 6 times after the transplant): increased the survival days to the level similar to that obtained in normal mice
restoration of thymus weight (in words) ([3]; 50 μg/kg orally, one day before, concurrently with, and 1 and 2 days after 5-FU (100 mg/kg)): restore the decreased thymus weight
Av. thymus weight mg ([3]; 5-FU (100 mg/kg i.p.) plus 5.0 μg/kg/day p.o.): 23.0 ± 1.6 mg
Av. thymus weight mg ([3]; 5-FU (100 mg/kg i.p.) plus 50.0 μg/kg/day p.o.): 26.6 ± 1.0 mg
Av. thymus weight % ([3]; 5-FU plus 5.0 μg/kg/day p.o.): 58.4%
Av. thymus weight % ([3]; 5-FU plus 50.0 μg/kg/day p.o.): 67.5%
Restoration Activity(%) ([3]; thymus weight, 5-FU plus 50.0 μg/kg/day p.o.): 20.0%
Restoration Activity(%) [4, 14]: 34.4%
DTH response % [4, 14]: 70.7%
DTH response av. ± S.E. (0.1 mm) ([4]; Table 2, 5-FU plus 0.05 μg/kg/day, i.p., control 10.3, 5-FU alone 5.7): 7.3 ± 0.9 0.1 mm
Restoration Activity(%) [4, 15]: 66.6%
DTH response % [4, 15]: 84.8%
DTH response av. ± S.E. (0.1 mm) ([4]; Table 2, 5-FU plus 0.5 μg/kg/day, i.p., control 10.3, 5-FU alone 5.7): 8.7 ± 1.2 0.1 mm
Restoration Activity(%) [4, 16]: 56.6%
DTH response % [4, 16]: 80.7%
DTH response av. ± S.E. (0.1 mm) ([4]; Table 2, 5-FU plus 5.0 μg/kg/day, i.p., control 10.3, 5-FU alone 5.7): 8.3 ± 0.8 0.1 mm
DTH response av. ± S.E. (0.1 mm) ([4]; Table 3, second experiment (control 15.1, 5-FU alone 8.1), 5-FU plus 0.5 μg/kg/day, i.p.): 10.8 ± 0.8 0.1 mm
Restoration Activity(%) [4, 17]: 39.1%
DTH response % [4, 17]: 71.6%
DTH response av. ± S.E. (0.1 mm) ([4]; Table 4 (control 7.7, 5-FU alone 5.6), 5-FU plus 0.5 μg/kg/day p.o.): 5.4 ± 0.9 0.1 mm
DTH response av. ± S.E. (0.1 mm) ([4]; Table 4 (control 7.7, 5-FU alone 5.6), 5-FU plus 5.0 μg/kg/day p.o.): 5.9 ± 1.0 0.1 mm
DTH response av. ± S.E. (0.1 mm) ([4]; Table 4 (control 7.7, 5-FU alone 5.6), 5-FU plus 50.0 μg/kg/day p.o.): 8.7 ± 1.2 0.1 mm
Restoration Activity(%) [4, 18]: 0%
DTH response % [4, 18]: 70.1%
Restoration Activity(%) [4, 19]: 14.3%
DTH response % [4, 19]: 76.6%
Restoration Activity(%) [4, 20]: 147.6%
DTH response % [4, 20]: 113%
DTH restoration activity (in words) ([4]; administered orally, Table 4): active when administered orally
DTH restoration activity (in words) ([4]; i.p., Tables 2 and 3): equal or in some instances, greater activity than did thymosin α1 at lower doses
